Read-outs that look alike come from different tables or passages of the source.
Assays:
[1] = test system: Desulfovibrio vulgaris (DSV); settings: 14 hours
Description: FIG. 8. Effect of molybdate on growth of Desulfovibrio vulgaris (DSV) on a culture plate.

[2] = test system: Desulfovibrio vulgaris (DSV); test: Production of hydrogen sulfide gas by DSV in the culture system; format: cell-based; settings: molybdate at 10 μM, 50 μM, and 1 mM; dose dependent
Description: FIG. 9. Effect of molybdate on the production of hydrogen sulfide gas measured in parts per billion (ppb) in the culture system.

[3] = test system: rats; test: Portal vein flow during 20-minute jejunal NaHS infusion in rats fed MgO diet; format: in vivo, rat
Description: FIG. 7. Portal venous flow recordings over 20-minute infusion of NaHS in two groups: Standard-diet-fed rats and Magnesium Oxide (MgO)-fed rats. Vehicle group shown as control; standard diet fed rats followed by water infusion. All measurements shown as percent change from baseline to accommodate for compensate for variation in baseline data; data shown as percent change±SEM. Baseline flow measurements recorded and average (shown as time 0) for each group. […] No difference is noted between MgO diet group and vehicle.
Rats were divided into three groups: Magnsium Oxide (MgO) diet, 500 mg MgO per 100 g chow, with NaHS infusion into small intestine (jejunim); standard diet with NaHS infusion into jejunum; and standard diet with control (vehicle) infusion into jejunim. Diets were administered for three days total. At the end of diet treatment, rats underwent surgery to measure porta vein flow before and after infusion of small intestine (jejunum) sodium hydrosulfide (NaHS), a hydrogen sulfide donor. Portal vein blood flow was recorded at baseline for 10 minutes and throughout 20-minute infusion periods. Data reported as percent change from baseline; infusion started at minute 1 of data shown. Blood flow data are reported as mean percent baseline change+/−SEM and were compared by 2-way RM-ANOVA.

Row | SMILES | Growth of DSV ([1]; molybdate at 10 μM, 50 μM, and 1 mM, dose-dependent) | Growth of DSV ([1]; molybdate at 1 mM) | Generation of H2S gas by DSV (ppb) [2] | Portal venous flow (percent change from baseline), MgO diet group versus vehicle ([3]; 500 mg MgO per 100 g chow for three days, 20-minute NaHS infusion, vehicle = standard diet, water infusion) | Portal vein blood flow, MgO diet group versus other two groups ([3]; at minutes 20 of infusion)
1 | [O]=[Mo](=[O])([O-])[O-] [molybdate] | suppressed the growth | completely suppressing the growth | suppressed the generation of H2S gas |  | 
2 | [O]=[Mg] [MgO, Magnesium Oxide] |  |  |  | No difference | Statistical significant difference

From patent US20210060058A1, “COMPOSITIONS AND METHODS FOR TREATING HYDROGEN SULFIDE-MEDIATED HYPERDYNAMIC CIRCULATION” (priority 2019, published 2021)
